Results taken from patent US20250339443A1, “METHOD FOR TREATING OR PREVENTING CALCIUM RELEASE-ACTIVATED CALCIUM CHANNEL OR DISCOIDIN DOMAIN RECEPTOR 2 RELATED DISORDERS OR CONDITIONS” (LumiSTAR Biotechnology, Inc., priority 2023, published 2025).

Columns and labels:
[1] = tested on: NRK49F cells; assay: Collagen alignment assay in FITC-conjugated collagen gel; format: cell-based, rat; settings: 10 ng/ml TGF-β1, 10 μM, 5 days
Protocol: FIG. 2A, FIG. 2B, FIG. 2C, FIG. 2D, FIG. 2E, FIG. 2F, FIG. 2G-1, and FIG. 2G-2 display how WRG-28 and Av suppress TGF-β1-induced fibroblasts activation and the differentiation of pericytes into myofibroblasts. […] Each bar represents the mean #SEM. […] The protein levels of collagen 1a1 and α-SMA were assessed using Western blot analysis under various conditions. […] Each bar represents mean±SEM. […] The images were acquired using a confocal microscope (Olympus, MPE). FIG. 2G-1 and FIG. 2G-2 display the measurement of angles between collagen fibers and the cell membrane, conducted using Image J. At least five different images from each condition were analyzed. Each bar represents mean±SEM. In all graphs, *, **, and *** represent p-value <0.05, 0.01, and 0.001, respectively. ‘ns’ denotes p-value >0.05, indicating no significant difference.
FITC-conjugated collagen was used to make collagen gel and cells were grown in the gel for 5 days. After that cells were fixed with 4% paraformaldehyde and phalloidin-TRICT was used as counterstaining in the evaluation of the cell body. The angles between fibers and cell membrane were measured by image J.
The alignment of the extracellular matrix (ECM) is a unique characteristic of myofibroblasts, altering the physical properties of the tissue microenvironment and posing a threat to tissue homeostasis during organ fibrosis. […]

[2] = tested on: THP-1 derived macrophages; assay: Cytokine secretion in macrophages (ELISA); format: cell-based, human; settings: IFN-γ/LPS induction, culture medium
[3] = tested on: human pulmonary fibroblast (MRC5); assay: TGF-β1-induced activation of human pulmonary fibroblasts (Western blot); format: cell-based; settings: MRC5, 10 μM co-treatment, 24 hours
Protocol: Cells were co-treated with various compounds (10 μM) and TGF-β1 for 24 hours. Following this, cell lysates were harvested, and the protein expression was assessed by Western blot analysis. FIG. 3D depicts the examination of TGF-β1-induced fibronectin deposition and α-SMA expression in HCF treated with 10 μM of DMSO, BTP2, WRG-28, or Av through immunofluorescence staining. The images were captured using a confocal microscope, the Olympus FV-1000. FIG. 3E, FIG. 3F, and FIG. 3G illustrate the assessment of CRAC channel activity in HCF, MRC5, and rat HSC-T6. These cells were pretreated with 10 μM of BTP2, WRG-28, or Av for 45 min. The evaluation included measuring the second peak of each calcium wave and the rate of entry. […]
Cell lysates were harvested in RIPA buffer (150 mM NaCl, 1 mM EGTA, 50 mM Tris pH 7.4, 10% glycerol, 1% Triton X-100, 1% sodium deoxycholate, 0.1% SDS, and protease inhibitor cocktail) and collected from culture dish with cell scrapers. […] The protein expression levels were assessed by specific primary antibodies, including antibodies against phosphotyrosine (clone 4G10; Millipore), DDR2 (R&D), α-SMA (Sigma), Collagen 1a1 (Boster), E-cadherin (BD Biosciences), SGLT2 (Proteintech), NHE1 (Novus) and β-actin (Clone C4, Millipore), followed by incubating with secondary antibodies conjugated with HRP and detected by ECL kit (Thermo Scientific). […]

**Q.** `CCNS(=O)(=O)c1ccc(COc2ccc3nc4ccc(=O)cc-4oc3c2)cc1` [WRG-28] was tested. Which TGF-β1-induced collagen alignment [1] did it give?
**A.** The TGF-β1-induced collagen alignment was “reduced”.

**Q.** What about the “secretion of IL-2 in macrophages” value [2] of the same compound?
**A.** The value was “significantly reduced”.

**Q.** And the “secretion of IL-6 in macrophages” value [2]?
**A.** The value was “significantly reduced”.

**Q.** And the “secretion of TNF-β in macrophages” value [2]?
**A.** The value was “significantly reduced”.

**Q.** And the “upregulation of α-SMA induced by TGF-β1” value [3]?
**A.** The value was “suppressed”.

**Q.** How did the TGF-β1-induced collagen alignment [1] turn out when `Cc1nnsc1C(=O)Nc1ccc(-n2nc(C(F)(F)F)cc2C(F)(F)F)cc1` [BTP2] was run?
**A.** The TGF-β1-induced collagen alignment was “reduced”.

**Q.** And the “secretion of IL-2 in macrophages” value [2]?
**A.** Its value is “significantly reduced”.

**Q.** What about the “secretion of IL-6 in macrophages” value [2] of the same compound?
**A.** The value was “significantly reduced”.

**Q.** What about the “secretion of TNF-β in macrophages” value [2] of the same compound?
**A.** Its value is “significantly reduced”.

**Q.** And the “upregulation of α-SMA induced by TGF-β1” value [3]?
**A.** Its value is “suppressed”.
